System: MV-4-11 cells
Experiment: Gene expression microarray analysis (Affymetrix PrimeView) and GSEA
Type: cell-based, human
Parameters: RFU PODN (11730768_x_at) / Fold change /veh PODN (11730768_x_at) / RFU LINC00158 (11744669_a_at) / Fold change /veh LINC00158 (11744669_a_at) / RFU DUSP10 (11751237_a_at) / Fold change /veh DUSP10 (11751237_a_at) / RFU ID3 (11757404_x_at) / Fold change /veh ID3 (11757404_x_at) / RFU PLEKHG5 (11737974_s_at) / Fold change /veh PLEKHG5 (11737974_s_at) / RFU LRRC4B (11730491_at) / Fold change /veh LRRC4B (11730491_at) / RFU GIMAP4 (11747438_a_at) / Fold change /veh GIMAP4 (11747438_a_at) / RFU KRT8 (11758183_x_at) / Fold change /veh KRT8 (11758183_x_at) / RFU CNN1 (11734310_a_at) / Fold change /veh CNN1 (11734310_a_at) / RFU VPS37D (11726825_at) / Fold change /veh VPS37D (11726825_at) / RFU C10orf10 (11716522_x_at) / Fold change /veh C10orf10 (11716522_x_at) / RFU KIR2DL2 /// KIR2DL4 /// KIR2DL5A /// KIR2DL5B /// KIR2DS1 /// KIR2DS2 /// KIR2DS3 /// KIR2DS4 /// KIR3DL3 /// KIR3DL3 /// KIR3DS1 (11738374_at) / Fold change /veh KIR2DL2 /// KIR2DL4 /// KIR2DL5A /// KIR2DL5B /// KIR2DS1 /// KIR2DS2 /// KIR2DS3 /// KIR2DS4 /// KIR3DL3 /// KIR3DL3 /// KIR3DS1 (11738374_at) / RFU C1QL1 (11718748_at) / Fold change /veh C1QL1 (11718748_at) / RFU TMPRSS4 (11747572_a_at) / Fold change /veh TMPRSS4 (11747572_a_at) / RFU HAMP (11756126_x_at) / Fold change /veh HAMP (11756126_x_at) / RFU RNFT2 (11725882_a_at) / Fold change /veh RNFT2 (11725882_a_at) / RFU NR4A2 (11747474_a_at) / Fold change /veh NR4A2 (11747474_a_at) / RFU ABCC12 (11746883_a_at) / Fold change /veh ABCC12 (11746883_a_at) / RFU TMEM136 (11760407_x_at) / Fold change /veh TMEM136 (11760407_x_at) / RFU CLDN22 /// WWC2 (11732394_at) / Fold change /veh CLDN22 /// WWC2 (11732394_at) / RFU HLA-DPB1 (11760878_x_at) / Fold change /veh HLA-DPB1 (11760878_x_at) / RFU SPINT1 (11716480_a_at) / Fold change /veh SPINT1 (11716480_a_at) / RFU GAP43 (11754022_s_at) / Fold change /veh GAP43 (11754022_s_at) / RFU A4GNT (11735810_at) / Fold change /veh A4GNT (11735810_at) / RFU PRB3 (11715151_x_at) / Fold change /veh PRB3 (11715151_x_at) / RFU TUBB4B (11761932_at) / Fold change /veh TUBB4B (11761932_at) / RFU CAPN14 (11732068_a_at) / Fold change /veh CAPN14 (11732068_a_at) / RFU TMCC2 (11721928_a_at) / Fold change /veh TMCC2 (11721928_a_at) / RFU IRGQ (11745062_a_at) / Fold change /veh IRGQ (11745062_a_at) / RFU FAM174B (11720279_a_at) / Fold change /veh FAM174B (11720279_a_at) / RFU TMPRSS4 (11748680_a_at) / Fold change /veh TMPRSS4 (11748680_a_at) / RFU FAM212B (11763350_a_at) / Fold change /veh FAM212B (11763350_a_at) / RFU PLEKHG5 (11743358_a_at) / Fold change /veh PLEKHG5 (11743358_a_at) / RFU ZSCAN30 (11745921_a_at) / Fold change /veh ZSCAN30 (11745921_a_at) / RFU CMKLR1 (11741424_a_at) / Fold change /veh CMKLR1 (11741424_a_at) / RFU LOC101060620 /// MAPK8IP1 (11723275_at) / Fold change /veh LOC101060620 /// MAPK8IP1 (11723275_at) / RFU SPTSSB (11747773_x_at) / Fold change /veh SPTSSB (11747773_x_at) / RFU PRSS12 (11739890_at) / Fold change /veh PRSS12 (11739890_at) / RFU BIN1 (11741810_x_at) / Fold change /veh BIN1 (11741810_x_at) / RFU WNT11 (11732464_a_at) / Fold change /veh WNT11 (11732464_a_at) / RFU C10orf10 (11716521_a_at) / Fold change /veh C10orf10 (11716521_a_at) / RFU C5orf56 (11738089_at) / Fold change /veh C5orf56 (11738089_at) / RFU CYB561 (11721691_x_at) / Fold change /veh CYB561 (11721691_x_at) / RFU ANKRD19P (11752326_a_at) / Fold change /veh ANKRD19P (11752326_a_at) / RFU OR2T12 /// OR2T33 /// OR2T8 (11738714_s_at) / Fold change /veh OR2T12 /// OR2T33 /// OR2T8 (11738714_s_at) / RFU VCAN (11748164_a_at) / Fold change /veh VCAN (11748164_a_at) / RFU JSRP1 (11732532_at) / Fold change /veh JSRP1 (11732532_at) / RFU KRTAP10-11 (11738290_x_at) / Fold change /veh KRTAP10-11 (11738290_x_at) / RFU MYO3A (11730013_a_at) / Fold change /veh MYO3A (11730013_a_at) / RFU EBF3 (11725865_a_at) / Fold change /veh EBF3 (11725865_a_at) / RFU CAMK2N1 (11719241_x_at) / Fold change /veh CAMK2N1 (11719241_x_at) / RFU C5orf56 (11738088_a_at) / Fold change /veh C5orf56 (11738088_a_at) / RFU OLFML3 (11715873_a_at) / Fold change /veh OLFML3 (11715873_a_at) / RFU LOC100653217 /// NTM (11731650_a_at) / Fold change /veh LOC100653217 /// NTM (11731650_a_at) / RFU MAPK11 (11762145_a_at) / Fold change /veh MAPK11 (11762145_a_at) / RFU FIZ1 (11724087_x_at) / Fold change /veh FIZ1 (11724087_x_at) / RFU OASL (11726364_x_at) / Fold change /veh OASL (11726364_x_at) / RFU SOX15 (11748057_x_at) / Fold change /veh SOX15 (11748057_x_at) / RFU CD79A (11719716_a_at) / Fold change /veh CD79A (11719716_a_at) / RFU HIST1H1D (11736915_at) / Fold change /veh HIST1H1D (11736915_at) / RFU CASKIN2 (11723855_a_at) / Fold change /veh CASKIN2 (11723855_a_at) / RFU LOC730098 (11760151_x_at) / Fold change /veh LOC730098 (11760151_x_at) / RFU OR4N2 (11742367_at) / Fold change /veh OR4N2 (11742367_at) / RFU PRRT2 (11749266_a_at) / Fold change /veh PRRT2 (11749266_a_at) / RFU SNX32 (11753110_a_at) / Fold change /veh SNX32 (11753110_a_at) / RFU CDHR5 (11726645_a_at) / Fold change /veh CDHR5 (11726645_a_at) / RFU RCAN1 (11760418_a_at) / Fold change /veh RCAN1 (11760418_a_at) / RFU FAM167A (11723789_a_at) / Fold change /veh FAM167A (11723789_a_at) / RFU FAM26E (11764081_at) / Fold change /veh FAM26E (11764081_at) / RFU ISYNA1 (11749810_s_at) / Fold change /veh ISYNA1 (11749810_s_at) / RFU ACY1 (11761880_at) / Fold change /veh ACY1 (11761880_at) / RFU 11764098_at / Fold change /veh 11764098_at / RFU SAMD14 (11745864_x_at) / Fold change /veh SAMD14 (11745864_x_at) / RFU NPB (11741838_a_at) / Fold change /veh NPB (11741838_a_at) / RFU TMPRSS6 (11731388_a_at) / Fold change /veh TMPRSS6 (11731388_a_at) / RFU KRTAP10-2 (11738614_at) / Fold change /veh KRTAP10-2 (11738614_at) / RFU ARHGAP8 /// PRR5-ARHGAP8 (11727945_x_at) / Fold change /veh ARHGAP8 /// PRR5-ARHGAP8 (11727945_x_at) / RFU KRTAP5-7 /// NADSYN1 (11734609_at) / Fold change /veh KRTAP5-7 /// NADSYN1 (11734609_at) / RFU RASL12 (11751679_a_at) / Fold change /veh RASL12 (11751679_a_at) / RFU CDKN2B (11736163_a_at) / Fold change /veh CDKN2B (11736163_a_at) / RFU PRF1 (11729649_at) / Fold change /veh PRF1 (11729649_at) / RFU, ZNF638 /// ZNF638-IT1 / Fold change vs veh, ZNF638 /// ZNF638-IT1 / RFU, PANK3 / Fold change vs veh, PANK3 / RFU, SH3YL1 / Fold change vs veh, SH3YL1 / RFU, ZEB2 / Fold change vs veh, ZEB2 / RFU, NRIP1 / Fold change vs veh, NRIP1 / RFU, PTTG1IP / Fold change vs veh, PTTG1IP / RFU, CAPN2 / Fold change vs veh, CAPN2 / RFU, MED14 / Fold change vs veh, MED14 / RFU, SNORA58 / Fold change vs veh, SNORA58 / RFU, C1orf63 / Fold change vs veh, C1orf63 / RFU, LRRFIP1 / Fold change vs veh, LRRFIP1 / RFU, NDUFAF7 / Fold change vs veh, NDUFAF7 / RFU, SLC12A2 / Fold change vs veh, SLC12A2 / RFU, IBTK / Fold change vs veh, IBTK / RFU, ESF1 / Fold change vs veh, ESF1 / Fold change vs veh, TMEM50B / RFU, TAOK1 / Fold change vs veh, TAOK1 / RFU, ACBD3 / Fold change vs veh, ACBD3 / RFU, TMA16 / Fold change vs veh, TMA16 / RFU, RWDD3 / Fold change vs veh, RWDD3 / RFU, BCAT1 / Fold change vs veh, BCAT1 / RFU, EDEM3 / Fold change vs veh, EDEM3 / RFU, TMEM33 / Fold change vs veh, TMEM33 / RFU, WDR75 / Fold change vs veh, WDR75 / RFU, AHCTF1 / Fold change vs veh, AHCTF1 / RFU, TFRC / Fold change vs veh, TFRC / RFU, ZDHHC17 / Fold change vs veh, ZDHHC17 / RFU, NOM1 / Fold change vs veh, NOM1 / RFU, ARL8B / Fold change vs veh, ARL8B / RFU, ZBTB11 / Fold change vs veh, ZBTB11 / RFU, TAMM41 / Fold change vs veh, TAMM41 / RFU, KIAA1704 /// LOC100996395 / Fold change vs veh, KIAA1704 /// LOC100996395 / RFU, ING1 / Fold change vs veh, ING1 / RFU, TRMT61B / Fold change vs veh, TRMT61B / RFU, FUBP3 / Fold change vs veh, FUBP3 / RFU, TP53 / Fold change vs veh, TP53 / RFU, TNKS2 / Fold change vs veh, TNKS2 / RFU, ZFP14 / Fold change vs veh, ZFP14 / RFU, ACTR2 / Fold change vs veh, ACTR2 / RFU, PPP3R1 / Fold change vs veh, PPP3R1 / RFU, PIK3R1 / Fold change vs veh, PIK3R1 / RFU, HNRNPA1 / Fold change vs veh, HNRNPA1 / RFU, RNF170 / Fold change vs veh, RNF170 / RFU, ZNF28 / Fold change vs veh, ZNF28 / RFU, RNGTT / Fold change vs veh, RNGTT / RFU, OGT / Fold change vs veh, OGT / RFU, BRD1 / Fold change vs veh, BRD1 / RFU, MARS / Fold change vs veh, MARS / RFU, ZNF655 / Fold change vs veh, ZNF655 / RFU, FAHD1 / Fold change vs veh, FAHD1 / RFU, BDP1 / Fold change vs veh, BDP1 / RFU, LRRCC1 / Fold change vs veh, LRRCC1 / RFU, ARID1A / Fold change vs veh, ARID1A / RFU, ZNF146 / Fold change vs veh, ZNF146 / RFU, ZNF330 / Fold change vs veh, ZNF330 / RFU, GPN3 / Fold change vs veh, GPN3 / RFU, C9orf123 / Fold change vs veh, C9orf123 / RFU, N4BP2L2 / Fold change vs veh, N4BP2L2 / RFU, ARFIP1 / Fold change vs veh, ARFIP1 / RFU, FAM179B / Fold change vs veh, FAM179B / RFU, BCL10 / Fold change vs veh, BCL10 / RFU, UHRF1BP1L / Fold change vs veh, UHRF1BP1L / RFU, BET1 / Fold change vs veh, BET1 / RFU, CNOT2 / Fold change vs veh, CNOT2 / RFU, ZNF268 / Fold change vs veh, ZNF268 / Fold change vs veh, ZNF507 / RFU, DGCR2 / Fold change vs veh, DGCR2 / RFU, WDSUB1 / Fold change vs veh, WDSUB1 / Fold change vs veh, HSP90B1 /// MIR3652 / RFU, ADSS / Fold change vs veh, ADSS / RFU, GK / Fold change vs veh, GK / RFU, ZNF148 / Fold change vs veh, ZNF148 / RFU, TAF9 / Fold change vs veh, TAF9 / RFU, SLC1A5 / Fold change vs veh, SLC1A5 / RFU, SLMO2 / Fold change vs veh, SLMO2 / RFU, ABCC4 / Fold change vs veh, ABCC4 / RFU, LOC101060439 /// RAP1B / Fold change vs veh, LOC101060439 /// RAP1B / RFU, RFX7 / Fold change vs veh, RFX7 / RFU, GTPBP10 / Fold change vs veh, GTPBP10 / RFU, CNEP1R1 / Fold change vs veh, CNEP1R1 / RFU, BIVM-ERCC5 /// ERCC5 / Fold change vs veh, BIVM-ERCC5 /// ERCC5 / RFU, ILF3 / Fold change vs veh, ILF3 / RFU 11762660_at / Fold change /veh 11762660_at / RFU VCAN (11757783_s_at) / Fold change /veh VCAN (11757783_s_at) / RFU DDX43 (11728927_at) / Fold change /veh DDX43 (11728927_at) / RFU KRT8 (11758188_x_at) / Fold change /veh KRT8 (11758188_x_at) / RFU NKD1 (11759106_at) / Fold change /veh NKD1 (11759106_at) / RFU SRD5A1 (11742802_a_at) / Fold change /veh SRD5A1 (11742802_a_at) / RFU TPSAB1 /// TPSB2 (11721975_s_at) / Fold change /veh TPSAB1 /// TPSB2 (11721975_s_at) / RFU GSTM3 (11746129_a_at) / Fold change /veh GSTM3 (11746129_a_at) / RFU IL23R (11737362_x_at) / Fold change /veh IL23R (11737362_x_at) / RFU TMEM51 (11727254_a_at) / Fold change /veh TMEM51 (11727254_a_at) / RFU PIWIL2 (11732686_x_at) / Fold change /veh PIWIL2 (11732686_x_at) / RFU ORM1 (11744905_x_at) / Fold change /veh ORM1 (11744905_x_at) / RFU CCDC152 (11743942_at) / Fold change /veh CCDC152 (11743942_at) / RFU ECM1 (11717891_a_at) / Fold change /veh ECM1 (11717891_a_at) / RFU IL23R (11748794_a_at) / Fold change /veh IL23R (11748794_a_at) / RFU TNFAIP8L3 (11732012_x_at) / Fold change /veh TNFAIP8L3 (11732012_x_at) / RFU MBOAT4 (11741988_at) / Fold change /veh MBOAT4 (11741988_at) / RFU 11764193_at / Fold change /veh 11764193_at / RFU TMEM53 (11763286_at) / Fold change /veh TMEM53 (11763286_at) / RFU MAGEB2 (11727129_at) / Fold change /veh MAGEB2 (11727129_at) / RFU TMEM200A (11744735_a_at) / Fold change /veh TMEM200A (11744735_a_at) / RFU CCDC152 (11751479_a_at) / Fold change /veh CCDC152 (11751479_a_at) / RFU FAM211A (11726209_a_at) / Fold change /veh FAM211A (11726209_a_at) / RFU RGS16 (11746705_a_at) / Fold change /veh RGS16 (11746705_a_at) / RFU VCAN (11755009_s_at) / Fold change /veh VCAN (11755009_s_at) / RFU RHOB (11743442_s_at) / Fold change /veh RHOB (11743442_s_at) / RFU RGS16 (11720943_a_at) / Fold change /veh RGS16 (11720943_a_at) / RFU RGS16 (11720944_at) / Fold change /veh RGS16 (11720944_at) / RFU, VPS4B / Fold change vs veh, VPS4B / RFU, CREB1 / Fold change vs veh, CREB1 / RFU, DNAJC13 / Fold change vs veh, DNAJC13 / RFU, GNAQ / Fold change vs veh, GNAQ / RFU, CDK5R1 / Fold change vs veh, CDK5R1 / RFU, ZRANB3 / Fold change vs veh, ZRANB3 / RFU, CUL4A / Fold change vs veh, CUL4A / RFU, CCNY / Fold change vs veh, CCNY / RFU, UFL1 / Fold change vs veh, UFL1 / RFU, COG3 / Fold change vs veh, COG3 / RFU, DIAPH2 / Fold change vs veh, DIAPH2 / RFU, SKA2 / Fold change vs veh, SKA2 / RFU, AFF3 / Fold change vs veh, AFF3 / RFU, LMF1 / Fold change vs veh, LMF1 / RFU, IPO11 / Fold change vs veh, IPO11 / RFU, DFFB / Fold change vs veh, DFFB / RFU, FOXP1 / Fold change vs veh, FOXP1 / RFU, CARD8 / Fold change vs veh, CARD8 / RFU, STRN3 / Fold change vs veh, STRN3 / RFU, ADK / Fold change vs veh, ADK / RFU, RASSF2 / Fold change vs veh, RASSF2 / RFU, WIPF1 / Fold change vs veh, WIPF1 / RFU, LARP1B / Fold change vs veh, LARP1B / RFU, RASA1 / Fold change vs veh, RASA1 / RFU, RB1 / Fold change vs veh, RB1 / RFU, PPFIA1 / Fold change vs veh, PPFIA1 / RFU, MAT2A / Fold change vs veh, MAT2A / RFU, CCT5 / Fold change vs veh, CCT5 / RFU, WDR92 / Fold change vs veh, WDR92 / RFU, CUX1 / Fold change vs veh, CUX1 / RFU, TTC7A / Fold change vs veh, TTC7A / RFU, TMEM135 / Fold change vs veh, TMEM135 / RFU, DEPTOR / Fold change vs veh, DEPTOR / RFU, CPM / Fold change vs veh, CPM / RFU, DNAJB6 / Fold change vs veh, DNAJB6 / RFU, CACNA2D3 / Fold change vs veh, CACNA2D3 / RFU, DTX4 / Fold change vs veh, DTX4 / RFU, TFCP2 / Fold change vs veh, TFCP2 / RFU, GMCL1 /// GMCL1P1 / Fold change vs veh, GMCL1 /// GMCL1P1 / RFU, AEBP2 / Fold change vs veh, AEBP2 / RFU, SNHG1 /// SNORD22 /// SNORD25 /// SNORD26 /// SNORD27 /// SNORD28 /// SNORD29 /// SNORD31 / Fold change vs veh, SNHG1 /// SNORD22 /// SNORD25 /// SNORD26 /// SNORD27 /// SNORD28 /// SNORD29 /// SNORD31 / Fold change (Aza/veh), C12orf56 (ProbeSet 11735607_a_at) / Fold change (ACY-1035/veh), C12orf56 (ProbeSet 11735607_a_at) / Fold change (Aza/veh), FGFR1OP (ProbeSet 11751329_s_at) / Fold change (ACY-1035/veh), FGFR1OP (ProbeSet 11751329_s_at) / Fold change (Aza/veh), VPS36 (ProbeSet 11739960_a_at) / Fold change (ACY-1035/veh), VPS36 (ProbeSet 11739960_a_at) / RFU SYPL1 (11715823_x_at) / Fold change /veh SYPL1 (11715823_x_at) / RFU IGFBP7 (11715501_s_at) / Fold change /veh IGFBP7 (11715501_s_at) / RFU REEP3 (11722064_at) / Fold change /veh REEP3 (11722064_at) / RFU IGLL1 (11728026_x_at) / Fold change /veh IGLL1 (11728026_x_at): dose or concentration left out as unconfirmed
Settings: ProbeSet 11754362_a_at; LIST D

`Nc1ccc(-c2cccs2)cc1NC(=O)c1ccc2c(c1)cc(C1CC1)n2CCN1CCOCC1` [ACY-1035] was tested, and the “RFU, TTC7A” value was 150.96 RFU.

Source: paper PMC5218480 (PLoS ONE, 2017)
